According to patent US12156859B2, “Methods of and compositions for treating obesity, obesity-related diseases or cancers using a N6-methyllysine/l-lysine mixture” (Tainnovation Inc, priority 2021, dated 2024):
Entries after “also recorded” stand apart in the source; their conditions may differ.

Columns and labels:
[1] = tested on: DUSP6 / cold microbiota; assay: 16S rRNA microbiota analysis of BCI-CR versus Vehicle-CR mice (cold-room temperature transition); assay type: in vivo; settings: during the cold-RT transition, BCI-CR vs Vehicle-CR, 16S rRNA sequencing
Excerpt: FIG. 1B illustrates the cold induced gut bacteria that is regulated by DUSP6 inhibition by injecting DUSP6 inhibitor, (E/Z)-BCI hydrochloride, into the mice underwent cold-room temperature (CR) transition.
To search the potential Nε-Methyl-L-lysine producers in cold microbiota, we performed the microbiota analysis on 16S rRNA sequencing data of BCI-CR and Vehicle-CR microbiota.

[2] = tested on: CDAHFD-induced NASH and liver fibrosis; assay: NASH and liver fibrosis test (CDAHFD-fed mice); assay type: in vivo, male C57BL/6J mice
Procedure: (§1) Tissues were fixed in 4% neutral-buffered formalin (Sigma), paraffin-embedded, sectioned, and stained with hematoxylin and eosin (H&E) or subjected to immunohistochemistry analysis. For adipose tissue, the 5 μm FFPE sections of pWAT and iWAT were deparaffinated and stained with H&E. The mean adipocyte area and adipocyte size distribution were determined by using Adiposoft software. For quantifying lipid droplets in liver tissues, the 5 μm FFPE liver sections were deparaffinated and stained with H&E. The mean lipid droplets area was determined by using Image J software.
Groups of 6-week-old male C57BL/6J mice were fed in choline-deficient, L-amino acid-defined, high-fat diet (CDAHFD; #A06071302) purchased from Research Diets (New Brunswick, NJ, USA) or chow diet for 4 weeks. After two weeks of CDAHFD treatment, mice were orally administrated L-lysine (150 mM), Nε-Methyl-L-lysine (150 mM) (100 ul/mouse/Day) or vehicle (water; 100 ul/mouse/Day) for 14 days with continuing CDAHFD treatment. Bodyweight was measured weekly. After sacrifice, the serum of mice was collected and stored at −80° ° C. The serum levels of aspartate aminotransferase (AST) and alanine aminotransferase (ALT) were measured with biochemistry slides for a chemistry analyzer (FUJI DRI-CHEM 4000i, Fujifilm Corporation, Japan). For hepatic fibrosis staining, the 5 μm FFPE liver sections were deparaffinated and stained with a Trichrome staining kit according to the manufacturer's instructions.
8-weeks old male C57BL/6 mice are fed with a choline-deficient, L-amino acid-define, high-fat diet (CDAHFD) (Research Diet, Inc. […]) for 4 weeks to induce NASH and liver fibrosis. During the third and fourth week of CDAHFD treatment, it is orally administered Nε-Methyl-L-lysine (100 μg Nε-Methyl-L-lysine/g body weight/per day) into mice for fourteen days. […] Data are presented as mean±SEM. Kruskal-Wallis test is used in FIG. 4 (a and b) Mann-Whitney t-tests are used in FIG. 4 (c and d) to indicate significant differences between groups. *P<0.05. *P<0.005. *P<0.0005. *P<0.00005.

[3] = tested on: perigonadal white adipose tissue (pWAT) and inguinal white adipose tissue (iWAT); assay: Adipose tissues reducing experiment: 14-day oral administration to chow diet-fed mice, body weight and pWAT/iWAT mass; assay type: in vivo, male C57BL/6J mice; settings: chow diet-fed male mice, fourteen days
Procedure: To test the browning-activating and WAT-reducing abilities of Nε-Methyl-L-lysine, 8-week-old male C57BL/6J mice were orally administrated of L-lysine (150 mM), Nε-Methyl-L-lysine (150 mM) (100 ul/mouse/Day) or vehicle (water; 100 ul/mouse/Day) for 14 days.
(§2) 14 days after treatment, the L-lysine (150 mM), Nε-Methyl-L-lysine (150 mM) (100 ul/mouse/Day) or vehicle (water; 100 ul/mouse/Day) treated mice were sacrificed and the perigonadal white adipose tissue (pWAT) and inguinal white adipose tissue (iWAT) were collected and weighted for measuring the reducing effects of L-lysine, Nε-Methyl-L-lysine and vehicle. To test the browning-activating abilities of L-lysine, Nε-Methyl-L-lysine and vehicle control in pWAT and iWAT of treated mice, total RNA of WAT was extracted by using RNeasy Lipid Tissue kits. The concentration and quality of RNA were measured by NanoDrop spectrophotometer. For qRT-PCR analysis of browning marker gene Ucp1 and beta-oxidation gene Cpt1b, complementary DNA was obtained by using M-MLV Reverse Transcriptase with oligo-dT primers. qRT-PCR was performed with SYBR-green master on a MyGo Pro PCR system.
FIG. 6 illustrates a method of using Nε-Methyl-L-lysine to reduce the total mass of subcutaneous and perigonadal white adipose tissues without reducing total body weight. It is orally administered Nε-Methyl-L-lysine (100 μg Nε-Methyl-L-lysine/g body weight/per day, body weights before treatment, body weights 7 days after treatment, body weights 14 days after treatment) into eight weeks old male C57/BL6 mice for fourteen days. […] Data are presented as mean±SEM and significance is calculated by one-way ANOVA followed by Tukey's multiple comparison test. *P<0.05. **P<0.01.

[4] = tested on: adipocytes of pWAT and iWAT; assay: Histological examination of pWAT and iWAT (H&E, Adiposoft adipocyte area and size distribution); assay type: in vivo, male C57BL/6J mice; settings: vs vehicle
Procedure: as §1

[5] = tested on: gut microbiota; assay: Gut microbiota control experiment (14-day oral administration); assay type: in vivo, male C57/BL6 mice
Procedure: 14 days after treatment, the fecal pellets of L-lysine (150 mM), Nε-Methyl-L-lysine (150 mM) (100 ul/mouse/Day) or vehicle (water; 100 ul/mouse/Day) treated mice were collected for DNA extraction. PCR amplification was performed on extracted DNA for 16s rDNA amplicons by using the primers targeting the V3-V4 region (primer set: 341F-805R). 16s rRNA amplicons were sequenced on an Illumina Miseq platform and generated 300 bp paired-end reads. Raw data were obtained with barcodes sequences cleaned up. The sequencing data was analyzed using the QIIME 2 platform (version: 2020.8).
It is orally administered Nε-Methyl-L-lysine (100 μg Nε-Methyl-L-lysine/g body weight/per day) into eight weeks old male C57/BL6 mice for fourteen days. Fourteen days after treatment, perigonadal adipose tissues of vehicle (H2O) treated mice and Nε-Methyl-L-lysine treated mice were collected for qPCR analyses. […] Data are presented as mean±SEM. Mann-Whitney t-tests are used to indicate significant differences between groups. *P<0.05.

[6] = tested on: differentiated 3T3-L1 adipocytes; assay: Cell differentiation experiment: Oil Red-O lipid staining and Ucp1 qPCR; assay type: cell-based; settings: 150 μM
Procedure: The differentiation of 3T3-L1 cells was performed by using 3T3-L1 DIFFERENTIATION KIT (DIF001, Merck). After differentiation, cells were maintained in a complete medium containing […] Nε-Methyl-L-lysine and vehicle control for 7 days before the harvest. After treatments, cells were subjected to RNA extraction and qPCR analysis of Ucp1 and Cpt1b mRNA expression. For quantifying the lipid accumulation in cells, cells were fixed with in 4% neutral-buffered formalin and stained with Oil Red-O reagent.
FIG. 5 illustrates a method of using Nε-Methyl-L-lysine to inhibit lipid storage and promote adipose browning in differentiated 3T3-L1 adipocytes in accordance with some embodiments. 3T3-L1 cells (SP-L1-F) are purchased from a commercial available source. It is maintained and differentiated 3T3-L1 preadipocytes. After differentiation, differentiated 3T3-L1 adipocytes are treated by post-differentiation medium containing vehicle (H2O) or Nε-Methyl-L-lysine (150 μM). […] Data are collected from three independent experiments (FIGS. 5a and 5b) and presented as mean±SEM. Mann-Whitney t-tests are used to indicate significant differences between groups. *P<0.05. **P<0.01. ****P<0.0001.

[7] = tested on: Ucp1 and Cpt1b; assay: qRT-PCR of browning marker gene Ucp1 and beta-oxidation gene Cpt1b in white adipose tissue of treated mice; assay type: in vivo, male C57BL/6J mice; settings: perigonadal adipose tissue, 14 days after oral treatment, qPCR, vs vehicle
Procedure: as §2
Beiging and β-oxidation are two major fat-burning mechanism of white adipose tissues controlled by the expression of Ucp-1 and CPT-1 gene respectively. […] It is orally administered Nε-Methyl-L-lysine (100 μg Nε-Methyl-L-lysine/g body weight/per day) into eight weeks old male C57/BL6 mice for fourteen days. 14 days after treatment, perigonadal adipose tissues of vehicle (H2O) treated mice and Nε-Methyl-L-lysine treated mice are collected for qPCR analyses. […] Data are presented as mean±SEM. Mann-Whitney t-tests are used to indicate significant differences between groups. *P<0.05.

[8] = CDAHFD 4 weeks, oral treatment during third and fourth week
[9] = 100 μg/g body weight/per day oral, fourteen days, vs vehicle

Cl.O=C1/C(=C/c2ccccc2)C(NC2CCCCC2)c2ccccc21 (mixture of isomers) [(E/Z)-BCI hydrochloride]
abundance of Lachospiraceae bacterium, Marvinbryantia uncultured bacterium, Peptococcaceae uncultured bacterium, Bifidobacterium pseudolongum and Gordonnibacter uncultured bacterium [1]: significantly regulates the abundance

NCCCC[C@H](N)C(=O)O [L-lysine]
serum ALT level, CDAHFD compared with chow-diet fed mice [2, 8]: significantly increased
serum AST level, CDAHFD compared with chow-diet fed mice [2, 8]: significantly increased
total mass of iWAT (subcutaneous white adipose tissues) [3]: did not show significant effects
total mass of pWAT (perigonadal white adipose tissues) [3]: did not show significant effects

CNCCCC[C@H](N)C(=O)O [Nε-Methyl-L-lysine]
mean adipocyte area and distribution of adipocyte size of pWAT and iWAT ([4]; Adiposoft software): significantly reduced
adipocyte size in iWAT (histological examination) ([4]; H&E sections): significantly reduced adipocyte size
adipocyte size in pWAT (histological examination) ([4]; H&E sections): significantly reduced adipocyte size
serum ALT level, CDAHFD compared with chow-diet fed mice [2, 8]: significantly increased
reducing AST/ALT ratio, compared with lysine ([2]; mice fed with a CDAHFD): better effect than lysine
reducing serum AST level, compared with lysine ([2]; mice fed with a CDAHFD): better effect than lysine
liver lipid droplets ([2]; mice fed with a CDAHFD, oral 14 days): promising effect on reducing
liver fibrosis ([2]; mice fed with a CDAHFD, oral 14 days, trichrome stain): promising effect on reducing
number of bacteria classified in the Actinobacteria phylum in gut [5, 9]: capable of increasing the number
number of bacteria classified in the Bacilli class in gut [5, 9]: capable of increasing the number
number of bacteria classified in the Bacteroidia phylum in gut [5, 9]: capable of increasing the number
number of bacteria classified in the Bifidobacterium genus in gut [5, 9]: capable of increasing the number
number of bacteria classified in the Coriobacteriia class in gut [5, 9]: capable of increasing the number
number of bacteria classified in the Lactobacillus genus in gut [5, 9]: capable of increasing the number
number of bacteria classified in the Saccharimonadia class in gut [5, 9]: capable of increasing the number
number of bacteria classified in the Verrucomicrobiota phylum in gut [5, 9]: capable of increasing the number
total bacterial load [5, 9]: capable of increasing the total bacterial load
number or relative percentage of Akkernmansia muciniphilla in gut ([5]; FIG. 8j): increase the number or relative percentage
lipid storage (oil-red O staining) ([6]; vs vehicle (H2O)): significantly reduce lipid storage
browning marker Ucp-1 expression ([6]; vs vehicle-treated cells): significantly induce
sensitivity of visceral pWAT versus subcutaneous iWAT to the substance [3]: higher sensitivity
total mass of iWAT (subcutaneous white adipose tissues) [3]: dramatically reduced
total mass of pWAT (perigonadal white adipose tissues) [3]: dramatically reduced
body weight ([3]; 150 mM 100 ul/mouse/Day (100 μg/g body weight/per day), vs vehicle or L-lysine): did not significantly change the body weight; also recorded: did not change the mice body weights
expression of Cpt1b (β-oxidation marker gene) in pWAT [7]: significantly induced the expression
expression of Ucp-1 (browning marker gene) in pWAT [7]: significantly induced the expression
expression of Cpt1b (β-oxidation marker gene) in pWAT ([7]; listed as Nε-Methyl−1-lysine): enhanced the expression
expression of Ucp-1 (browning marker gene) in pWAT ([7]; listed as Nε-Methyl−1-lysine): enhanced the expression
